Read-outs that look alike come from different tables or passages of the source. Marks after values point to notes of the source that are not given here.
Key:
[1] = tested on: carrageenin edema of right hind limb plantar; experiment: Anti-inflammatory activity, carrageenin edema method; format: in vivo, SD-rats; details: po, 10 mg/kg orally
Protocol: Anti-Inflammatory Activity
Male SD-rats (6 weeks old, CLEA Japan) were used (1 group, n=6). The Carrageenin edema method was performed according to the method of Winter et. al., (Proc. Soc. Exp. Biol. Med., vol. 111, p. 544-547, 1962). After the volume of right hind limb plantar of the rat was determined, a sample was orally administered (1.0 mL, b.w.), and immediately water was orally administered in an amount of 5 mL/rat. Meanwhile, only the solvent of the sample was orally administered to rats in control. After 1 hour, a solution of 1% carrageenin in saline (0.05 mL) was injected into the right hind limb plantar subcutaneously to induce edema. After 2 and 3 hours later from the injection, volumes of the right hind limb plantar were determined. The repression rate (%) of the sample was calculated by comparing the difference of the volumes of the plantar before the carrageenin shot and 2 and 3 hours after the shot between the sample groups and the control groups.

[2] = biological target: T1, human COX-1 (Homo sapiens, UniProt P23219); experiment: Determination of COX-1 inhibitory activity (microsome fraction, chemiluminescence); format: biochemical; details: microsome fraction 40 μg, arachidonic acid, 37° C. 25 minutes preincubation; read-out: Repression rate IC50 (μM) COX-1
T1 construct: made in house; host or cells: Sf-21 insect cells (recombinant baculovirus BAC-COX1, pFASTBAC1); microsome fraction
Protocol: A 1.8 kb DNA fragment containing human COX-1 cDNA (FASEB J., vol. 5 (9), p. 2304-2312 (1991)) prepared by the PCR method was inserted into plasmid pFASTBAC1 (CIBCOBRL) to obtain a plasmid pFBCOX1.
Using the plasmid pFBCOX1 and BAC-TO-BAC Baculovirus Expression System (GIBCOBRL), a virus stock BAC-COX1 of the recombinant baculovirus was prepared.
Sf-21 cells were inoculated in 125 mL of Sf-900 II SFM medium (GIBCOBRL) at a concentration of 1×10^6 cells/mL, and the medium was incubated at 27° C. for 24 hours. 0.75 mL of the virus stock BAC-COX1 of the recombinant baculovirus was added thereto, and the mixture was incubated further for 72 hours. The cells were separated from the medium by centrifugation (3000 rpm, 10 min), and washed with PBS twice. The cells were suspended in 10 mL of a Lysis buffer (0.1M Tris-HCl (pH 7.4), 5 mM EDTA), and were treated with a homogenizer (POLYTRON) three times at 20000 rpm for 20 seconds so that the cells were crushed. The supernatant obtained after centrifugation (2000 rpm, 10 minutes) was further centrifuged (40000 rpm, 45 minutes) to give a precipitate, which was resuspended in a Lysis buffer (0.1M Tris-HCl (pH 7.4), 5 mM EDTA), and the suspension was stored at −80° C.
(§1) Determination of COX-1 and COX-2 Inhibitory Activities
(§2) To a mixture of 20 μL of a reaction buffer previously concentrated 10 times (1M Tris-HCl (pH8.0), 50 mM EDTA, 1.0% Tween 20, 50 mM luminol, 100 μM hematin), 20 μL of the microsome fractions (COX-1: 40 μg, COX-2: 20 μg), and 55 μL of distilled water, a sample compound dissolved in DMF (5 μL) was added, and the mixture was left at 37° C. for 25 minutes. The reaction was started by the addition of 20 μM arachidonic acid (100 μL), and chemiluminescence amount during the 10-second period after the addition of arachidonic acid was determined by the use of Lumistar (BMG Lab technologies, GmbH). The inhibition rate was calculated, regarding that the enzyme activity when DMF ([…]) was added was 100%, and the enzyme activity when 4 mM flurbiprofen (5 μL) was added was 0%.

[3] = tested on: acetic acid induced rising and stretching; experiment: Analgesic activity, acetic acid rising method; format: in vivo, ICR-mice; details: po, 20 min; 10 mg/kg orally, 30 minutes before 0.6% acetic acid i.p.; number of rising and stretching in 20 minutes; read-out: Repression rate (%) Dosage 10 mg/kg
Protocol: Analgesic Activity Acetic Acid Rising Method Male ICR-mice (5 weeks old, CLEA Japan) were used (1 group, n=10), and a sample was orally administered (0.2 mL/10 g, b.w.). After 30 minutes, 0.6% acetic acid solution was injected to mice intraperitoneally (0.1 mL/10 g, b.w.), and the mice were immediately transferred into an observation cage made of a transparent acrylic resin. The number of rising and stretching during the following period of 20 minutes was counted. The repression rate (%) was calculated by comparing the average numbers between the sample groups and the control groups.

[4] = biological target: T2, human COX-2 (Homo sapiens, UniProt P35354); experiment: Determination of COX-2 inhibitory activity (microsome fraction, chemiluminescence); format: biochemical; details: microsome fraction 20 μg, arachidonic acid, 37° C. 25 minutes preincubation; read-out: Repression rate IC50 (μM) COX-2
T2 construct: made in house; host or cells: Sf-21 insect cells (recombinant baculovirus BAC-COX2, pFASTBAC1); microsome fraction
T2 sequence (P35354 18-604): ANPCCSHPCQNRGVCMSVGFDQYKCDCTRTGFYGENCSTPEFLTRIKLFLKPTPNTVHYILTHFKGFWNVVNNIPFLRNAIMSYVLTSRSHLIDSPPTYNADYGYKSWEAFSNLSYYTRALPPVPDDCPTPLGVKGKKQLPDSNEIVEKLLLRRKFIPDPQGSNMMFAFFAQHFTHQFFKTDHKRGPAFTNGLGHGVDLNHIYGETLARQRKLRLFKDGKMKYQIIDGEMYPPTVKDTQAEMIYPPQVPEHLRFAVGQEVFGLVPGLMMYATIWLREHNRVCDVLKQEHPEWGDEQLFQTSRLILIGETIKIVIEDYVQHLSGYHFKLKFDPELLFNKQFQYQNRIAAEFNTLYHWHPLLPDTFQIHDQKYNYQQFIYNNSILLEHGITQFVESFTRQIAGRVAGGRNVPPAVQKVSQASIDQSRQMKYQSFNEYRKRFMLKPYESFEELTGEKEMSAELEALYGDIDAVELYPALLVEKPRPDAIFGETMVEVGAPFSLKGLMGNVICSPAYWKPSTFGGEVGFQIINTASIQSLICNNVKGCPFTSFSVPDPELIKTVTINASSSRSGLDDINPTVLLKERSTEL
Protocol: A 1.8 kb DNA fragment containing human COX-2 cDNA (Proc. Natl. Acad. Sci. U.S.A., vol. 89 (16), p. 7384-7388 (1992)) prepared by the PCR method was inserted into plasmid pFASTBAC1 (CIBCOBRAL) to obtain a plasmid pFBCOX2.
Using the plasmid pFBCOX2 and BAC-TO-BAC Baculovirus Expression System (GIBCOBRAL), a virus stock BAC-COX2 of the recombinant baculovirus was prepared.
Sf-21 cells were inoculated in 125 mL of LSf-900 II SFM medium (GIBCOBRAL) at a concentration of 1×10^6 cells/mL, and the medium was incubated at 27° C. for 24 hours. 0.75 mL of the virus stock BAC-COX2 of the recombinant baculovirus was added thereto, and was incubated further for 72 hours. The cells were separated from the medium by centrifugation (3000 rpm, 10 min), and washed with PBS twice. The cells were suspended in 10 mL of a Lysis buffer (0.1M Tris-HCl (pH 7.4), 5 mM EDTA), and were treated with a homogenizer (POLYTRON), three times at 20000 rpm for 20 seconds so that the cells were crushed. The supernatant thus obtained after centrifugation (2000 rpm, 10 minutes) was further centrifuged (40000 rpm, 45 minutes) to obtain a precipitate, which was resuspended in a Lysis buffer (0.1M Tris-HCl (pH 7.4), 5 mM EDTA), and the suspension was stored at −80° C.
as §1, §2

[5] = tested on: adjuvant arthritis; experiment: Anti-adjuvant-arthritic activity; format: in vivo, SD rats; details: 10 mg/kg orally once a day for 14 days; volume of left hind limb (not injected); day of reading not given
Protocol: Anti-Adjuvant-Arthritic Activity
Male SD origin male-rats (6 weeks old, CLEA Japan, 1 group: n=7) were used. The adjuvant arthritis method was conducted according to the method of Newbould B. B. et. al., (Brit. J. Pharmacol. Chemother., vol. 21, p. 127, 1963). Complete Freund's adjuvant (a suspension of killed tubercule bacillus in liquid paraffin at a concentration of 0.5%, 0.05 mL) was injected into the right hind limb footpad intracutaneouly to induce multiple arthritis. Samples were administered orally (10 mg/kg, b.w.), once a day for 14 days from the day before the injection day 0 to day 13. Volume of the left hind limb (not injected) was determined by the foot-volume measurement apparatus manufactured by Ugo Basile, on the day just before the adjuvant shot (Day 0), Day 10 and Day 14, and repression rate (%) was calculated comparing the values between the sample group and the control group.

[6] = tested on: mucosa of small intestine; experiment: Disorder of mucosa of small intestine; format: in vivo, SD rats; details: 100 mg/kg orally, freely fed rats, 6 hours after dosing
Protocol: Disorder of Mucosa of Small Intestine Male SD origin male-rats (7 weeks old, CLEA Japan) were used. To the rats freely fed, samples were administered orally (5 mL/kg, b.w.). After 5.5 hours from the administration, Evan's Blue (0.5% Evan's Blue/saline) was injected (1 mL/rat) intravenously under no anesthesia. After 30 minutes from the shot, the intestine was removed by celiotomy and the area thereof facing mesentery was cut open. After removal of intestinal content, the spots in the intestine dyed by Evan's Blue were measured under a stereomicroscope, and the total length (mm) of the spots was determined by a counter and recorded.

[7] = tested on: yeast-induced pyrexia; experiment: Antipyretic activity in yeast-induced pyrexia; format: in vivo, SD rats; details: 10 mg/kg orally; maximum difference in body temperature vs control over 6 hours
Protocol: Antipyretic Activity in Yeast-Induced Pyrexia Antipyretic activity was determined using male SD origin male-rats (7 weeks old, CLEA Japan, 1 group: n=6), according to the method of winter et. al. (J. Pharmacol. Exp. Ther., vol. 138, p. 405, 1963). Before 16 hours from measurement of body temperature, a suspension of 15% yeast in saline was injected subcutaneously (10 mL/kg, b.w.) into the rats to induce fever, and simultaneously supply of food was terminated while water was made available all the time. Each of the rats was raised separately. After 16 hours from the yeast shot, a thermistor terminal was inserted at an about 4 cm depth into rectum every hour, and the body temperatures after 30 seconds were recorded. After 18 hours, rats developing fevers consistently were selected, and a sample was orally administered to the rats (5 mL/kg, b.w.), while to the control, only the solvent was administered. After the administration, body temperatures were measured every hour for a period of 6 hours, and the maximum difference in body temperature between the rats in the sample group and in the control group were determined as Δ (° C.).

[8] = 2 hr after carrageenin injection, read-out: Repression rate (%) Dosage 10 mg/kg 2 hr later
[9] = 3 hr after carrageenin injection, read-out: Repression rate (%) Dosage 10 mg/kg 3 hr later

T1 sequence (P23219 24-599): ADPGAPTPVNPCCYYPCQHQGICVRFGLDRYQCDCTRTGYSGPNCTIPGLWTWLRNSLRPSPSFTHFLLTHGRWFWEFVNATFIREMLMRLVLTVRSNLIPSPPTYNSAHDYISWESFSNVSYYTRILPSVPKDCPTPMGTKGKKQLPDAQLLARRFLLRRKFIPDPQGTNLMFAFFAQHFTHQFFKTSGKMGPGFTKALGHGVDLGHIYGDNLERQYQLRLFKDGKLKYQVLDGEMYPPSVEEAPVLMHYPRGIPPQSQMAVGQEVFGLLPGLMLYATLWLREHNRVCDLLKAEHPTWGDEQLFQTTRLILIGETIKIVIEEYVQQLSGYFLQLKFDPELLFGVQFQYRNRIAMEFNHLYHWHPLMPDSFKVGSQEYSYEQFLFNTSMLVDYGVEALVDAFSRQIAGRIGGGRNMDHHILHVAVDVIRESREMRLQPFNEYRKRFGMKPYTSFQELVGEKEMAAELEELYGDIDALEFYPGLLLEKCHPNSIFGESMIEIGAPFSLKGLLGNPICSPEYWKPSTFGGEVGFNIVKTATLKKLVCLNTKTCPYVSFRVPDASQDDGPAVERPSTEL

Structure (SMILES) | melting point [°C] | inhibition in vivo at 10 mg/kg [1, 8] [%] | inhibition in vivo at 10 mg/kg [1, 9] [%] | inhibition in vivo at 10 mg/kg [3] [%] | Repression rate (%) Dosage 10 mg/kg [5] | other results
COC(=O)c1cccc2[nH]c3c(c(C)nn3-c3ccccn3)c(=O)c12 [Example 2-61, Methyl 3-methyl-4-oxo-1-(2-pyridinyl)-4,9-dihydro-1H-pyrazolo[3,4-b]quinoline-5-carboxylate] | 241 to 244 | 36 | 28 | 75 | – | IC50 [2]: 2 µM; IC50 [4]: 44 µM
Cc1nn(-c2ccccn2)c2[nH]c3ccc(C(F)(F)F)cc3c(=O)c12 [Example 2-40, 3-Methyl-1-(2-pyridinyl)-6-(trifluoromethyl)-l,9-dihydro-4H-pyrazolo[3,4-b]quinolin-4-one] | – | – | – | – | – | Total length of dyed spots (mm) [6]: 0 (100 mg/kg) mm
Cc1nn(-c2ccccn2)c2nc3ccccc3c(OC(C)C)c12 [Example 2-18, 4-Isopropoxy-3-methyl-1-(2-pyridinyl)-1H-pyrazolo[3,4-b]quinoline] | 93 to 96 | – | – | – | 47% | Δ (° C.) Dosage 10 mg/kg [7]: 1.7** ° C.
Cc1nn(-c2ccccn2)c2[nH]c3ccccc3c(=O)c12 [Example 2-12, 3-Methyl-1-(2-pyridinyl)-1,9-dihydro-4H-pyrazolo[3,4-b]quinolin-4-one] | – | – | – | – | – | Total length of dyed spots (mm) [6]: 0 (100 mg/kg) mm

Second part, led by results:

melting point [°C] | Structure (SMILES) | inhibition in vivo at 10 mg/kg [1, 8] [%] | inhibition in vivo at 10 mg/kg [1, 9] [%] | inhibition in vivo at 10 mg/kg [3] [%] | Repression rate (%) Dosage 10 mg/kg [5] | other results
278 to 280 | Cc1nn(-c2ccccn2)c2[nH]c3ccc(F)cc3c(=O)c12 [Example 2-81, 6-Fluoro-3-methyl-1-(2-pyridinyl)-1,9-dihydro-4H-pyrazolo[3,4-b]quinolin-4-one] | – | – | – | 56% | –
297 to 298 | O=c1c2cc(Cl)ccc2[nH]c2c1cnn2-c1ccccn1 [Example 2-161, 6-Chloro-1-(2-pyridinyl)-1,9-dihydro-4H-pyrazolo[3,4-b]quinolin-4-one] | 33 | 33 | 74 | – | Δ (° C.) Dosage 10 mg/kg [7]: 1.4** ° C.
260 to 261 | Cc1nn(-c2ccccn2)c2[nH]c3cc(F)ccc3c(=O)c12 [Example 2-83, 7-Fluoro-3-methyl-1-(2-pyridinyl)-1,9-dihydro-4H-pyrazolo[3,4-b]quinolin-4-one] | – | – | – | 65* % | –
284 | Cc1nn(-c2ccccn2)c2[nH]c3cc(F)c(Cl)cc3c(=O)c12 [Example 2-99, 6-Chloro-7-fluoro-3-methyl-1-(2-pyridinyl)-1,9-dihydro-4H-pyrazolo[3,4-b]quinolin-4-one] | 46 | 41 | 39 | – | –

Source: patent US6949648B2, “Condensed pyrazole derivatives, process for producing the same and use thereof” (Takeda Pharmaceutical Company Limited, priority 2000, dated 2005)
